Source: paper PMC4822137, “Proteasomes generate spliced epitopes by two different mechanisms and as efficiently as non-spliced epitopes” (Scientific Reports, 2016)

Key:
[1] = tested on: HLA-A*03:01/-A*02:01/-A*32:01+ HeLa cells / specific CD8+ T cell clones; test: semi-quantitative cell surface presentation of epitopes (IFN-γ release vs peptide titration); type: cell-based, human; conditions: E:T 4:1
[2] = tested on: HLA-A*02:01+ HeLa cells / gp100mel-specific CD8+ T cells; test: titration of peptide-pulsed HeLa cells with specific CD8+ T cells (IFN-γ release); type: cell-based, human; conditions: E:T 1:1, TCR-transduced CD8+ T cells
Procedure: Therefore we first performed titration experiments with HeLa cells expressing the target HLA-A molecules, pulsed with the antigenic peptides and co-cultivated them with the respective peptide-specific CD8^+ T-cell clones (Fig. 6A–E upper panels). […] T cell assays were performed with transduced CD8^+ T cells expressing the corresponding TCR. […] We next transfected HeLa^HLA-A*03:01+ cells with plasmids encoding the M210gp100^mel variant, or the NY-ESO-1 proteins together with the three HLA-A*32:01, -A*02:01 and -A*03:01molecules.
The data are the mean and bars the SD of three replicates of a representative assay of independent experiments (n = 2–6). […] Values are the means and bars the SEM of independent experiments (n = 2–7; each experiment with three independent replicates). […] The IFN-γ-release in the medium was measured by ELISA after 16 hrs co-culture.

[3] = biological target: HLA-A*02:01 (Homo sapiens, UniProt P04439, D140Y/D185E/D98H/E176V/E277Q/G131W/G231S/I119V/I121R/I166T/I218V/L300P/L318F/N151K/N90K/P208A/P217A/Q86G/Q94H/R138H/R169H/T345S); conditions: stated as known, reference not given; cited from earlier work
[4] = tested on: CD8+ T cells; design: method as in earlier work; conditions: T210M substitution; ref 10 (supplement); cited from earlier work

M210gp100^mel209–217: gp100mel209–217 in which anchor residue T210 was exchanged with a Methionine
amount vs gp100mel40–42/47–52 [1]: comparable | titration curve (IFN-γ release of specific T cells) [2]: satisfactory titration curves were obtained | HLA-A*02:01 binding [3]: better HLA-A *02:01 binding | immunogenicity and CD8+ T cell response vs gp100mel209-217 [4]: increase
